PMC4987650, “Structural Investigation of Park’s Nucleotide on Bacterial Translocase MraY: Discovery of Unexpected MraY Inhibitors” (Scientific Reports, 2016)
Entries after “also recorded” stand apart in the source; their conditions may differ.

Assays:
B. subtilis = assay: Minimal inhibitory concentration, broth dilution; format: cell-based, B. subtilis (BCRC 10614); settings: Bacillus subtilis, standard broth dilution
Protocol: (§1) Determination of Minimal Inhibition Concentration (MIC). B. subtilis (BCRC 10614) and S. aureus (BCRC 11863) was obtained from Bioresource Collection and Research Center (BCRC), Taiwan. The minimal inhibitory concentration of tested compounds was determined following the NCCLS standard. The experiments were conducted in 96-well microtiter plates using 16-point 2-fold dilutions in Muller-Hilton broth. Exponentially growing cells at 5 × 10^5 cells/mL were incubated with test compounds at various concentrations in a final volume of 100 μL. After an 18 to 24 h incubation at 37 °C, the minimal concentration of the compound that prevents at least 95% bacterial growth was determined as the MIC value of a given molecule.
(§2) (1 picture or pasted object on this page, not shown here)

MraYBS [1] = biological target: T1, MraYBS (Bacillus subtilis, UniProt Q03521); assay: Biolayer interferometry-based (BLI) binding assay
T1 construct: MBP; made in house
T1 sequence (Q03521 1-324): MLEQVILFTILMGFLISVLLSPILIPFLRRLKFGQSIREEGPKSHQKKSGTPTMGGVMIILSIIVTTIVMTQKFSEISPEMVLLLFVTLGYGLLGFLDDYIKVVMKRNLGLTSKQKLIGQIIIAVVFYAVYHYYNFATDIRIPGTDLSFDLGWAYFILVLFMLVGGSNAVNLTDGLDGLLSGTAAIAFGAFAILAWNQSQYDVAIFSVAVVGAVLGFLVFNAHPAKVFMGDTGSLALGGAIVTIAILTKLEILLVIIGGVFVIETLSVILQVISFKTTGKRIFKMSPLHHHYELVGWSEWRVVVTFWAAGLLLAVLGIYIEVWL
Protocol: MraYBS binding was measured in a biolayer interferometry-based binding assay on Octet Red96® instrument (ForteBio, Inc.). The biotinylation of MraYBS was performed with using EZ-Link® Sulfo-NHS-LC-LC-Biotin Kit (Thermo Fisher Scientific, Inc.). In general, MraYBS (1.7 mg/mL) in 50 μL reaction buffer (0.01 M HEPES pH 7.4, 0.15 M NaCl, 0.005% v/v Surfactant P20), was added by the sulfo-NHS-LC-LC-biotin reagent (1 mM, 1 μL). After incubating for 30 minutes at room temperature, the biotinylated-MraYBS was purified by a Zeba^TM Spin Desalting Columns, 7K MWCO (Thermo Fisher Scientific, Inc.), and the buffer was changed to the binding buffer (30 mM Tris, 10 mM MgCl2, 10 mM NaCl, 0.1 mM Tween-20, pH 8.0) during the purification. Comparing to the non-biotinylated-MraYBS, the biotinylated-MraYBS remains 62% activity measured by the HPLC-based MraY functional assay in 1 h reaction. The biotinylated MraYBS was then immobilized to Super Streptavidin (SSA) Octet tips (ForteBio, Inc.) for reaching a fixed signal of 3 nm. Before the assay starting, the MraYBS-labeled SSA sensors were pre-soaked in binding buffer for 30 min. The association of Park’s analogues with MraYBS were measured by incubating MraYBS-labeled SSA sensors in binding buffer containing various concentrations of samples in Octet Red system. The dissociation was monitored by moving the ligand biosenors from the analyte solution to binding buffer. The dissociation constants (KD) were obtained by nonlinear regression analysis using the specific binding model with the GraphPad Prism program (GraphPad Software, San Diego, CA).

S. aureus = assay: Minimal inhibitory concentration, broth dilution; format: cell-based, S. aureus (BCRC 11863); settings: Staphylococcus aureus, standard broth dilution
Protocol: as §1, §2

MraYBS [2] = biological target: T1, MraYBS; assay: MraY fluorescence enhancement assay (kinetics, inhibition); format: biochemical; settings: for Inhibition Mode: Lineweaver-Burk, 6 as substrate
Protocol: (§3) Determine kinetic parameters by MraY fluorescence enhancement assay. The fluorescence enhancement assay was performed in 384-well plate as described by Bugg et al. with slight modifications.5 The reaction mixture containing MraYBS (10 μg/mL), C55P (200 μM) in 30 μL reaction buffer (30 mM Tris, 10 mM MgCl2, 10 mM NaCl, 0.1 mM Tween-20, 2.5% DMSO, pH 8.0) were pre-incubated at 37 °C for 15 min. The reactions were initiated by the addition of various concentrations of NBD-Park’s nucleotide 6 (0 to 160 μM). For inhibition study, a various concentrations of inhibitors were added before the addition of substrate 6. The continuous fluorescence increase over 60 min was monitored with λex 466 nm/λem 535 nm by fluorescence microplate reader (SpectraMax M5, Molecular Devices, LLC) at 37 °C. Linear regressions of increased fluorescent units (FLU) versus time (min) were used to calculate the initial velocities for each reaction. The kinetic parameters values (Ki, KM, and Vmax) were obtained by nonlinear regression analysis using the […] equation with the GraphPad Prism program (GraphPad Software, San

MraYBS [3] = biological target: T1, MraYBS; assay: HPLC-based MraY functional assay (substrate activity); format: biochemical; settings: Park's nucleotides 10 μM, MraYBS 40 μg/mL, C55P 1 mM, 37 °C, 24 h
Protocol: The purified MraY from Bacillus subtilis was prepared as described in our previous reports. […] […] The reaction mixtures were added by uridine (0.01 mg/mL) as the internal standard and heated to 100 °C to stop the transferring reaction. The samples were analyzed by RP-C18 HPLC with gradient elution of 0.25 M NH4HCO3(aq)/15% MeOH in water (100:0 to 0:100) at a flow rate of 1 mL/min over 45 min, and the peaks of substrates were monitored at UV 260 nm. For 6 and 11–17, the reaction mixture containing MraYBS (10 μg/mL), C55P (200 μM), 6-(7-Nitro-2,1,3-benzoxadiazol-4-ylamino)hexanoic acid (5 μM, internal standard) in 10 μL reaction buffer (30 mM Tris, 10 mM MgCl2, 10 mM NaCl, 0.1 mM Tween-20, 2.5% DMSO, pH 8.0) were pre-incubated at 37 °C for 15 min. […] The reaction mixtures were heated to 100 °C to stop the transferring reaction, and samples were analyzed by an anion-exchange column (SAX1, Supelco Co., 5 μm, 4.6 × 250 mm) with a linear gradient elution of NH4OAc (20 mM to 1 M in MeOH) at a flow rate of 1.0 mL/min over 30 min. The fluorescent substrates were monitored with λex 466 nm/λem 535 nm by fluorescence detector.

[4] = system: CC(=O)N[C@H]1[C@@H](OP(=O)(O)OP(=O)(O)OC[C@H]2O[C@@H](n3ccc(=O)[nH]c3=O)[C@H](O)[C@@H]2O)O[C@H](CO)[C@@H](O)[C@@H]1O[C@H](C)C(=O)N[C@@H](C)C(=O)N[C@H](CCC(=O)N[C@@H](CCCCNC(=O)CCCCCNc1ccc([N+](=O)[O-])c2nonc12)C(=O)N[C@H](C)C(=O)N[C@H](C)C(=O)O)C(=O)O; assay: Fluorescent enhancement assay, mutant MraY; format: biochemical, Bacillus subtilis; settings: pH 8.0; 37.0 °C
Protocol: Site–directed mutagenesis of MraY. Site-directed mutagenesis of the B. subtilis MBP-tagged MraY enzyme was performed directly on the pMAL -BS-MraY-16 expression plasmid by using the “Quickchanged XL Site-Directed Mutagenesis Kit ’’ from stratagene and the oligonucleotides shown below. Mutations introduced in the mraY gene sequence were checked by DNA sequencing. […]
MraY-T51A-R 5’-[…]-3’
T53A MraY-T53A-F 5’-[…]-3’
MraY-T53A-R 5’-[…]-3’
K102A MraY-K102A-F 5’-[…]-3’
MraY-K102A-R 5’-[…]-3’
K226A Mray-K226A-F 5’-[…]-3’ […]
F228A MraY-F228A-F 5’-[…]-3’
MraY-F228A-R 5’-[…]-3’
Q271A Mray-Q271A-F 5’-[…]-3’
Mray-Q271A-R 5’-[…]-3’
R281A MraY-R281A-F 5’-[…]-3’
MraY-R281A-R 5’-[…]-3’
W297A MraY-W297A-F 5’-[…]-3’
MraY-W297A-R 5’-[…]-3’
as §3, §2

[5] = substrate: CC(=O)N[C@H]1[C@@H](OP(=O)(O)OP(=O)(O)OC[C@H]2O[C@@H](n3ccc(=O)[nH]c3=O)[C@H](O)[C@@H]2O)O[C@H](CO)[C@@H](O)[C@@H]1O[C@H](C)C(=O)N[C@@H](C)C(=O)N[C@H](CCC(=O)N[C@@H](CCCCNC(=O)CCCCCNc1ccc([N+](=O)[O-])c2nonc12)C(=O)N[C@H](C)C(=O)N[C@H](C)C(=O)O)C(=O)O; assay: MraY fluorescence enhancement assay (kinetics, inhibition); format: biochemical, Bacillus subtilis; settings: other: WT MraYBS, 6 as the substrate; pH 8.0; 37.0 °C
Protocol: as §3

CC(=O)N[C@H]1[C@@H](OP(=O)(O)OP(=O)(O)OC[C@H]2O[C@@H](n3cc(NC(=O)Cc4ccc(C)cc4)c(=O)[nH]c3=O)[C@H](O)[C@@H]2O)O[C@H](CO)[C@@H](O)[C@@H]1O[C@H](C)C(=O)N[C@@H](C)C(=O)O [Compound 20]
MIC (B. subtilis): > 200 µM
Kd (MraYBS [1]): 197 ± 47 µM
binding affinity fold stronger than that of 19 (MraYBS [1]; ratio of KD): approximately 1.5 fold
MIC (S. aureus): > 200 µM
Ki (MraYBS [2]): 11 ± 3 µM
difference of inhibition abilities (Ki values) of 19 and 20 (MraYBS [2]): 70 fold
Inhibition Mode (MraYBS [2]): Competitive

CC(=O)N[C@H]1[C@@H](OP(=O)(O)OP(=O)(O)OC[C@H]2O[C@@H](n3cc(NC(=O)Cc4ccc(C)cc4)c(=O)[nH]c3=O)[C@H](O)[C@@H]2O)O[C@H](CO)[C@@H](O)[C@@H]1O[C@H](C)C(=O)N[C@@H](C)C(=O)N[C@H](CCC(=O)N[C@@H](CCCCN)C(=O)N[C@H](C)C(=O)N[C@H](C)C(=O)O)C(=O)O [Compound 22]
MIC (B. subtilis): > 200 µM
Kd (MraYBS [1]): 86 ± 12 µM
binding affinity fold stronger than that of 20 (MraYBS [1]; ratio of KD): approximately 2.3 fold
substrate under extreme reaction conditions (MraYBS [3]): not be a substrate
MIC (S. aureus): > 200 µM
Ki (MraYBS [2]): 4 ± 1 µM
potency relative to tunicamycins (Ki) (MraYBS [2]): approximately two-fold; also recorded: roughly twice
Inhibition Mode (MraYBS [2]): Competitive

MraYBS F228A mutant (Bacillus subtilis subsp. subtilis str. 168; F228A)
Km [4]: 18 ± 2 µM

MraYBS K102A mutant (Bacillus subtilis subsp. subtilis str. 168; K102A)
Km [4]: 49 ± 9 µM

MraYBS K226A mutant (Bacillus subtilis subsp. subtilis str. 168; K226A)
Km [4]: 24 ± 3 µM

MraYBS Q271A mutant (Bacillus subtilis subsp. subtilis str. 168; Q271A)
Km [4]: 72 ± 11 µM

MraYBS R281A mutant (Bacillus subtilis subsp. subtilis str. 168; R281A)
Km [4]: 20 ± 1 µM

MraYBS T51A mutant (Bacillus subtilis subsp. subtilis str. 168; T51A)
Km [4]: 24 ± 2 µM

MraYBS T53A mutant (Bacillus subtilis subsp. subtilis str. 168; T53A)
Km [4]: 70 ± 11 µM

MraYBS W297A mutant (Bacillus subtilis subsp. subtilis str. 168; W297A)
Km [4]: 63 ± 9 µM

B1: MraYBS (Bacillus subtilis subsp. subtilis str. 168) (protein)
chain: T1 sequence (Q03521 1-324)
notes: MBP; made in house
Km [5]: 18 ± 1 µM
